Reference: patent publication US10047051B2, “Substituted pyridines and method of use” (AbbVie S.á{acute over (.)}r.l., priority 2015, dated 2018)
Blank lines part the entries; values can stand above or below the compound they belong to.

Key:
Assay type in all cases: cell-based
[1] = target: T1, CFTR G551D mutant (Homo sapiens, UniProt P13569, G551D); assay: YFP-halide influx assay for the CFTR-G551D mutation (HEK293 cells); conditions: forskolin 10.67 μM
T1 construct: expressed in transfected cells; host or cells: HEK293 cells, reverse transfection with plasmids
How it was run: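 HEK293 cells reverse-transfected with CFTR G551D and halide-sensitive YFP (H148Q/I152L/F47L), expressed 24 h at 37 °C. YFP fluorescence quenching recorded for 7 s after I⁻ injection. Response = 1−F/F0; EC50 derived from 1−F/F0 vs compound concentration.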

[2] = target: T2, CFTR ΔF508 mutant (Homo sapiens, UniProt P13569, DEL508-508); assay: YFP-halide influx assay for the CFTR-ΔF508 mutation (CFBE41o- cells); conditions: forskolin 10.67 μM; for EC50: from (1−F/F0) vs concentration plot
T2 construct: expressed in transfected cells; host or cells: CFBE41o- cells, adenoviral transduction
How it was run: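 CFBE41o- cells transduced with adenovirus expressing CFTR ΔF508 and halide-sensitive YFP H148Q/I152L/F47L, then held 24 h at 27° C or with a CFTR modulator 24 h at 37° C. Iodide-induced quench recorded 2 min; EC50 from (1−F/F0) at 36 s versus concentration.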

[3] = target: T3, CFTR-S549N (Homo sapiens, UniProt P13569, S549N); assay: YFP-halide influx assay for the CFTR-S549N; parameters: % Activation: concentration or dose not given beside the values
T3 construct: expressed in transfected cells
How it was run: (§1)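 HEK293 cells reverse-transfected with a CFTR mutant and YFP H148Q/I152L/F47L halide sensor, expressed 24 h at 37° C. Fluorescence quenching followed for 7 s after I⁻ injection; activity expressed as 1−F/F0, with EC50 fitted from 1−F/F0 versus compound concentration.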

[4] = target: T4, CFTR-G178R (Homo sapiens, UniProt P13569, G178R); assay: YFP-halide influx assay for the CFTR-G178R
T4 construct: expressed in transfected cells
How it was run: as §1

[5] = target: T5, CFTR-R117H (Homo sapiens, UniProt P13569, R117H); assay: YFP-halide influx assay for the CFTR-R117H
T5 construct: expressed in transfected cells
How it was run: as §1

[6] = target: T6, CFTR-G1349D (Homo sapiens, UniProt P13569, G1349D); assay: YFP-halide influx assay for the CFTR-G1349D
T6 construct: expressed in transfected cells
How it was run: as §1

T2 sequence (P13569 with tags, fused parts or gaps DEL508-508): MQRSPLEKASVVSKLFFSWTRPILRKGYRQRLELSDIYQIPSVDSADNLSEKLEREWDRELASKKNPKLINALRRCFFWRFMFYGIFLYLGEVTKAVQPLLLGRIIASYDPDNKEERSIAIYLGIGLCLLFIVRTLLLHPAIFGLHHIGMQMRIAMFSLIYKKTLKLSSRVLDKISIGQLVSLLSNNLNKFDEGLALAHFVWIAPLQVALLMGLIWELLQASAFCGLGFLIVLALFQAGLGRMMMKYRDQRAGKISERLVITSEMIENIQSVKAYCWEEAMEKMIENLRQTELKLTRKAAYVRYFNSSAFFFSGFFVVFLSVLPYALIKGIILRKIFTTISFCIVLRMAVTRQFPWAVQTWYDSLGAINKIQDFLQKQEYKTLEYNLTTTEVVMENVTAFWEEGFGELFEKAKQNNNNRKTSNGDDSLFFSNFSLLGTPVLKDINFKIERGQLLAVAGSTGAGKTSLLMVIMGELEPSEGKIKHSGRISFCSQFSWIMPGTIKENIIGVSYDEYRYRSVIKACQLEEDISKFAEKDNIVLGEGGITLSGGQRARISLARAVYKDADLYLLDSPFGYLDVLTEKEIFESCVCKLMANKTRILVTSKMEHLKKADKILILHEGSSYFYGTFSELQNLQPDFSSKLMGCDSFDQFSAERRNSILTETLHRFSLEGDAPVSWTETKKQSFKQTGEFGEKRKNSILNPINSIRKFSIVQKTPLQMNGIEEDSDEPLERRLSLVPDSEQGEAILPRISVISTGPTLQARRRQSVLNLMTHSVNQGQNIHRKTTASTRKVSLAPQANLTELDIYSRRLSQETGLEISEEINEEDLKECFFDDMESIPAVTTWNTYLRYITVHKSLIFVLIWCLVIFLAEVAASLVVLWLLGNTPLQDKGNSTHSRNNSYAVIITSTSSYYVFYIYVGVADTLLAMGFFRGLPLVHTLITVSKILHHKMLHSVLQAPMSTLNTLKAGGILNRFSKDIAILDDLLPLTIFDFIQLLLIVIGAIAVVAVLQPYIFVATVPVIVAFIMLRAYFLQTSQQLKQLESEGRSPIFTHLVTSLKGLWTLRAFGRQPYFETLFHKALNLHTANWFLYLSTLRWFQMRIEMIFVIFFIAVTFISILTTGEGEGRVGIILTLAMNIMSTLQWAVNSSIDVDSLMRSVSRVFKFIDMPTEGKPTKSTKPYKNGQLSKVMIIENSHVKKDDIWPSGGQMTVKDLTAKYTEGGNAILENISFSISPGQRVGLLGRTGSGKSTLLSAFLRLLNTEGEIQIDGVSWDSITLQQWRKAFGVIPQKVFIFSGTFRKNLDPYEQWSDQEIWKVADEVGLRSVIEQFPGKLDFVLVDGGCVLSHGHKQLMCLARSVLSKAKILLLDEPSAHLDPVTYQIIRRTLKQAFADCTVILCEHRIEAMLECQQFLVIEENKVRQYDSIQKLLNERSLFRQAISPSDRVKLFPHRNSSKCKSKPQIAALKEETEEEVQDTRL
T1 sequence (P13569 whole entry G551D): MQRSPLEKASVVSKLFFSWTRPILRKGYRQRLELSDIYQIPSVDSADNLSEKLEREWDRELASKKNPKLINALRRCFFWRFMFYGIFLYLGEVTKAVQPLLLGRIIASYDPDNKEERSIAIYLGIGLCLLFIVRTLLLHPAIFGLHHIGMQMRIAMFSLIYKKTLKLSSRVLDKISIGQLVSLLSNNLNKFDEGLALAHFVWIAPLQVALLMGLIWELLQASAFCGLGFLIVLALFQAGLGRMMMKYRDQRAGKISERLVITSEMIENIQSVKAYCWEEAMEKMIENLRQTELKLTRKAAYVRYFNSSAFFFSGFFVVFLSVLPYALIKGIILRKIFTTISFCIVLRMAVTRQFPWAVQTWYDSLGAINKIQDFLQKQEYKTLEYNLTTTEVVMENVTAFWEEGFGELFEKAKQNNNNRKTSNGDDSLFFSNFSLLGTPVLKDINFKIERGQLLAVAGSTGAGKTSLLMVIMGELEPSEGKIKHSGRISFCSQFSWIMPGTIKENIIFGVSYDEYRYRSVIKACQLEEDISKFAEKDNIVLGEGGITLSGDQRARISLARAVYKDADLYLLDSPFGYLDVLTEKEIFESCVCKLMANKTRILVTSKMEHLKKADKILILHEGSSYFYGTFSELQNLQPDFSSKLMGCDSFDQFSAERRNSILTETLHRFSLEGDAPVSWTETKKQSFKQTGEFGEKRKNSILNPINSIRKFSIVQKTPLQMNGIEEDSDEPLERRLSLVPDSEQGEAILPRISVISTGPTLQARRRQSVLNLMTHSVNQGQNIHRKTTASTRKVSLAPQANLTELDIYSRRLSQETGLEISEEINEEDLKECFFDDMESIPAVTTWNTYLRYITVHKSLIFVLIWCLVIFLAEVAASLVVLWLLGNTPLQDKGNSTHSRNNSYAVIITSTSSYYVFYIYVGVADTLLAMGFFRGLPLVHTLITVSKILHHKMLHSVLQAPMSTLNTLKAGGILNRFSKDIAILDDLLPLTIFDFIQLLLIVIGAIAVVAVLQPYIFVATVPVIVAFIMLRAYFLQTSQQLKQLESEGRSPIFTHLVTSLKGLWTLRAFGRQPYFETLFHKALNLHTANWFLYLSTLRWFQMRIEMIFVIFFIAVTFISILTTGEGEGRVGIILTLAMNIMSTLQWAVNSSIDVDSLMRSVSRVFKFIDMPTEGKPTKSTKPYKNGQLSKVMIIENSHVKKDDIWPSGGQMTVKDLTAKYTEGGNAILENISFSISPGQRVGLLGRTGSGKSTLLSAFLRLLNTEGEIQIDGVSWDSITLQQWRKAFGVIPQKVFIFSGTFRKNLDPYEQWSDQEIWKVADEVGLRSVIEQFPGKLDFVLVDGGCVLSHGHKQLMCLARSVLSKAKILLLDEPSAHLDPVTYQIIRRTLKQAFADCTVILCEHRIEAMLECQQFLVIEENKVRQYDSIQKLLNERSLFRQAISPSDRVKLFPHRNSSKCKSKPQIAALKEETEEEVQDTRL
T3 sequence (P13569 whole entry S549N): as the sequence (P13569 whole entry G551D) above, with S549N, D551G counted along it
T5 sequence (P13569 whole entry R117H): as the sequence (P13569 whole entry G551D) above, with R117H, D551G counted along it
T6 sequence (P13569 whole entry G1349D): as the sequence (P13569 whole entry G551D) above, with D551G, G1349D counted along it
T4 sequence (P13569 whole entry G178R): as the sequence (P13569 whole entry G551D) above, with G178R, D551G counted along it

% Activation [1]: 83.7%
EC50 [1]: 271 nM
% Activation [2]: 106.4%
EC50 [2]: 2.3 nM
Compound: Nc1cc(S(=O)(=O)c2ccc(OC(F)(F)F)cc2)cnc1C(=O)NC[C@@H](O)C(F)(F)F [Compound 37, 3-amino-N-[(2R)-3,3,3-trifluoro-2-hydroxypropyl]-5-{[4-(trifluoromethoxy)phenyl]sulfonyl}pyridine-2-carboxamide]

% Activation [1]: 80.8%
EC50 [1]: 315 nM
% Activation [2]: 105.3%
EC50 [2]: 2.2 nM
Compound: Nc1cc(S(=O)(=O)c2ccc(OC(F)(F)F)cc2)cnc1C(=O)NC[C@H](O)C(F)(F)F [Compound 26, 3-amino-N-[(2S)-3,3,3-trifluoro-2-hydroxypropyl]-5-{[4-(trifluoromethoxy)phenyl]sulfonyl}pyridine-2-carboxamide]

% Activation [3]: 86.4%
EC50 [3]: 748 nM
% Activation [4]: 86.1%
EC50 [4]: 284 nM
% Activation [1]: 85.1%
EC50 [1]: 1200 nM
% Activation [5]: 93.3%
EC50 [5]: 289 nM
% Activation [2]: 109.0%
EC50 [2]: 14.9 nM
% Activation [6]: 88.9%
EC50 [6]: 498 nM
Compound: C[C@H](O)CNC(=O)c1ncc(S(=O)(=O)c2ccc(OC(F)(F)F)cc2)cc1N [Compound 21, 3-amino-N-[(2S)-2-hydroxypropyl]-5-{[4-(trifluoromethoxy)phenyl]sulfonyl}pyridine-2-carboxamide]

% Activation [3]: 104.7%
EC50 [3]: 526 nM
% Activation [4]: 96.0%
EC50 [4]: 425 nM
% Activation [1]: 75.3%
EC50 [1]: 864 nM
% Activation [5]: 98.8%
EC50 [5]: 540 nM
% Activation [2]: 111.6%
EC50 [2]: 16.9 nM
% Activation [6]: 89.6%
EC50 [6]: 378 nM
Compound: COC[C@H](O)CNC(=O)c1ncc(S(=O)(=O)c2ccc(C(F)(F)F)cc2)cc1N [Compound 70, 3-amino-N-[(2R)-2-hydroxy-3-methoxypropyl]-5-{[4-(trifluoromethyl)phenyl]sulfonyl}pyridine-2-carboxamide]

% Activation [3]: 92.9%
EC50 [3]: 294 nM
% Activation [4]: 79.3%
EC50 [4]: 230 nM
% Activation [1]: 58.4%
EC50 [1]: 667 nM
% Activation [5]: 100.8%
EC50 [5]: 148 nM
% Activation [2]: 111.0%
EC50 [2]: 8.5 nM
% Activation [6]: 82.7%
EC50 [6]: 312 nM
Compound: Nc1cc(S(=O)(=O)c2ccc(F)cc2)cnc1C(=O)NC[C@@H](O)C(F)(F)F [Compound 36, 3-amino-5-[(4-fluorophenyl)sulfonyl]-N-[(2R)-3,3,3-trifluoro-2-hydroxypropyl]pyridine-2-carboxamide]

% Activation [3]: 72.7%
EC50 [3]: 580 nM
% Activation [4]: 82.7%
EC50 [4]: 302 nM
% Activation [1]: 47.1%
EC50 [1]: 700 nM
% Activation [5]: 98.5%
EC50 [5]: 598 nM
% Activation [2]: 97.9%
EC50 [2]: 31.4 nM
% Activation [6]: 69.6%
EC50 [6]: 265 nM
Compound: CC(C)(O)CNC(=O)c1ncc(S(=O)(=O)c2ccc(OC(F)(F)F)cc2)cc1N [Compound 1, 3-amino-N-(2-hydroxy-2-methylpropyl)-5-{[4-(trifluoromethoxy)phenyl]sulfonyl}pyridine-2-carboxamide]

% Activation [3]: 70.3%
EC50 [3]: 331 nM
% Activation [4]: 71.8%
EC50 [4]: 494 nM
% Activation [1]: 62.5%
EC50 [1]: 739 nM
% Activation [5]: 76.0%
EC50 [5]: 231 nM
% Activation [2]: 104.5%
EC50 [2]: 4.3 nM
% Activation [6]: 69.4%
EC50 [6]: 567 nM
Compound: CC(O)(CNC(=O)c1ncc(S(=O)(=O)c2ccc(OC(F)(F)F)cc2)cc1N)C(F)(F)F (centres unmarked) [Compound 2, 3-amino-N-(3,3,3-trifluoro-2-hydroxy-2-methylpropyl)-5-{[4-(trifluoromethoxy)phenyl]sulfonyl}pyridine-2-carboxamide]

% Activation [3]: 91.7%
EC50 [3]: 711 nM
% Activation [4]: 78.0%
EC50 [4]: 522 nM
% Activation [1]: 65.8%
EC50 [1]: 1940 nM
% Activation [5]: 91.3%
EC50 [5]: 460 nM
% Activation [2]: 96.1%
EC50 [2]: 14.5 nM
% Activation [6]: 88.0%
EC50 [6]: 536 nM
Compound: Nc1cc(S(=O)(=O)c2ccc(OC(F)(F)F)cc2)cnc1C(=O)N1CC(O)C1 [Compound 32, (3-amino-5-{[4-(trifluoromethoxy)phenyl]sulfonyl}pyridin-2-yl)(3-hydroxyazetidin-1-yl)methanone]

Second part, the compound before the results:

Compound: Nc1cc(S(=O)(=O)c2ccc(OC(F)(F)F)cc2)cnc1C(=O)NCCO [Compound 14, 3-amino-N-(2-hydroxyethyl)-5-{[4-(trifluoromethoxy)phenyl]sulfonyl}pyridine-2-carboxamide]
% Activation [3]: 68.9%
EC50 [3]: 1100 nM
% Activation [4]: 70.7%
EC50 [4]: 741 nM
% Activation [1]: 71.6%
EC50 [1]: 1330 nM
% Activation [5]: 89.7%
EC50 [5]: 943 nM
% Activation [2]: 108.1%
EC50 [2]: 23.7 nM
% Activation [6]: 66.7%
EC50 [6]: 816 nM

Compound: C[C@H](O)CNC(=O)c1ncc(S(=O)(=O)c2ccc(C(F)(F)F)cc2)cc1N [Compound 100, 3-amino-N-[(2S)-2-hydroxypropyl]-5-{[4-(trifluoromethyl)phenyl]sulfonyl}pyridine-2-carboxamide]
% Activation [3]: 103.0%
EC50 [3]: 648 nM
% Activation [4]: 78.7%
EC50 [4]: 546 nM
% Activation [1]: 59.1%
EC50 [1]: 1140 nM
% Activation [5]: 97.3%
EC50 [5]: 505 nM
% Activation [2]: 96.6%
EC50 [2]: 12.9 nM
% Activation [6]: 75.5%
EC50 [6]: 533 nM

Compound: Nc1cc(S(=O)(=O)c2ccccc2OC(F)(F)F)cnc1C(=O)NC[C@@H](O)C(F)(F)F [Compound 81, 3-amino-N-[(2R)-3,3,3-trifluoro-2-hydroxypropyl]-5-{[2-(trifluoromethoxy)phenyl]sulfonyl}pyridine-2-carboxamide]
% Activation [3]: 107%
EC50 [3]: 11.1 nM
% Activation [4]: 104.8%
EC50 [4]: 12.6 nM
% Activation [1]: 108.0%
EC50 [1]: 239 nM
% Activation [5]: 113.2%
EC50 [5]: 21.8 nM
% Activation [2]: 104.0%
EC50 [2]: 0.5 nM
% Activation [6]: 96.01%
EC50 [6]: 9.54 nM

Compound: Nc1cc(S(=O)(=O)c2ccc(OC(F)(F)F)cc2)cnc1C(=O)N1CC(F)(F)C1 [Compound 40, (3-amino-5-{[4-(trifluoromethoxy)phenyl]sulfonyl}pyridin-2-yl)(3,3-difluoroazetidin-1-yl)methanone]
% Activation [3]: 84.51%
EC50 [3]: 1200 nM
% Activation [4]: 81.76%
EC50 [4]: 392 nM
% Activation [1]: 70.2%
EC50 [1]: 656 nM
% Activation [5]: 86.71%
EC50 [5]: 291 nM
% Activation [2]: 105.5%
EC50 [2]: 22.9 nM
% Activation [6]: 84.31%
EC50 [6]: 440 nM

Compound: Nc1cc(S(=O)(=O)c2ccc(OC(F)(F)F)cc2)cnc1C(=O)NCC(O)COCC1CC1 (centres unmarked) [Compound 31, 3-amino-N-[3-(cyclopropylmethoxy)-2-hydroxypropyl]-5-{[4-(trifluoromethoxy)phenyl]sulfonyl}pyridine-2-carboxamide]
% Activation [3]: 91.4%
EC50 [3]: 567 nM
% Activation [4]: 84.3%
EC50 [4]: 348 nM
% Activation [1]: 71.7%
EC50 [1]: 425 nM
% Activation [5]: 100.0%
EC50 [5]: 866 nM
% Activation [2]: 106.2%
EC50 [2]: 18.6 nM
% Activation [6]: 86.8%
EC50 [6]: 511 nM

Compound: Nc1cc(S(=O)(=O)c2ccc(OC(F)(F)F)cc2)cnc1C(=O)NCC(O)C(F)(F)F (centres unmarked) [Compound 6, 3-amino-N-(3,3,3-trifluoro-2-hydroxypropyl)-5-{[4-(trifluoromethoxy)phenyl]sulfonyl}pyridine-2-carboxamide]
% Activation [3]: 87.1%
EC50 [3]: 390 nM
% Activation [4]: 93.1%
EC50 [4]: 80.7 nM
% Activation [1]: 82.5%
EC50 [1]: 350 nM
% Activation [5]: 95.7%
EC50 [5]: 63.9 nM
% Activation [2]: 114.0%
EC50 [2]: 3.4 nM
% Activation [6]: 87.4%
EC50 [6]: 158 nM

Compound: Nc1cc(S(=O)(=O)c2ccc(F)cc2)cnc1C(=O)NC[C@H](O)C(F)(F)F [Compound 25, 3-amino-5-[(4-fluorophenyl)sulfonyl]-N-[(2S)-3,3,3-trifluoro-2-hydroxypropyl]pyridine-2-carboxamide]
% Activation [3]: 82.5%
EC50 [3]: 292 nM
% Activation [4]: 76.8%
EC50 [4]: 211 nM
% Activation [1]: 67.2%
EC50 [1]: 976 nM
% Activation [5]: 91.3%
EC50 [5]: 318 nM
% Activation [2]: 108.3%
EC50 [2]: 8.1 nM
% Activation [6]: 82.6%
EC50 [6]: 412 nM
